US6949522B2, “β-2′- or 3′-halonucleosides” (Pharmasset, Inc., priority 2001, dated 2005)
Read-outs that look alike come from different tables or passages of the source.

Experiments:
HIV-1 LAI (wild type) = assay: HIV-1 Q-RT-PCR assay in human PBM cells, strain LAI; type: cell-based; details: 5 days, viral RNA reduced by 90%
Method: Human PBM cells (1×10^6 cells/T25 flask) were PHA stimulated for 2 or 3 days, and infected with either a wild type (LAI and xxBRU) or a 3TC-resistant (xxBRU 184V) HIV-1 strain at 100 TCID50, as previously described (27). The culture was kept for 5 days in presence of test compounds at serial 1-log dilutions. Subsequently, human PBM cells were removed from the culture supernatant by centrifugation (10 minutes, 400×g, 4° C.). This clarified supernatant was tested either in the RT-assay, or in the Q-RT-PCR assay.
Viral RNA present in the culture supernatant was prepared using commercially available columns (QIAamp Viral RNA mini Kit, Qiagen, Valencia, Calif.). Viral RNA was detected in real-time by monitoring increases in fluorescence signal that resulted from degradation of a quenched fluorescent probe molecule following the hybridization of the probe to the arnplified viral DNA (TaqMan 7700 chemistry, Applied Biosystems, Foster City, Calif.). The TaqMan probe and primers were designed using the Primer Express software (Applied Biosystems); they cover highly conserved sequences complementary to an 81 base pair long fragment from the HIV-1 RT gene between codon 230 and 257 of the group MHIV-1 genome; • probe 5′-6FAM-[…]-TAMRA-3′ (Sequence 1) • sense primer: 5′-[…]-3′ (Sequence 2); and • antisense primer 5′-[…]-3′ (Sequence 3).
A total of 5 μL RNA was RT-amplified using reagents and conditions as described by the manufacturer (Applied Biosystems). […] Copy numbers were calibrated using the Roche Amplicor HIV-1 Monitor test™ (Roche Diagnostics, Branchburg, N.J.) on a 1-log dilution series of a clinical HIV-1 genotype B isolate (attenuated in vitro to obtain a high viral load). The 10-6 diluted sample became positive at threshold cycle (Ct=PCR cycle threshold where a sample becomes detectable)=35.52, which corresponded to 1,410 copies/mL in the Roche monitor HIV-1 version II assay. When validated over a dynamic range of 3 logs of virus, there was excellent correlation (r2˜1) between the two methodologies. […] Therefore, the currently designed primer and probe set allowed reliable quantification of both clinical samples and HIV-1 in vitro preparations.
HIV-1 present in culture supernatant fluids was quantified by two different methodologies: i) the Q-RT-PCR with read-out in log copies/mL; and ii) the endogenous viral RT assay on cell supernatant with read-out in log counts per minute/mL (CPM/mL). Upon addition of antiviral compounds to the culture media, a dose-related decrease in virus production was observed. Although the two methodologies measured different parameters (viral RNA versus active RT enzyme), results were not markedly different from each other. The HIV-1 Q-RT-PCR results were compared with a previously established cell-based antiviral drug evaluation assay (endogenous HIV-1 RT polymerization activity in cell supematant)(27).

HIV-1LAI = assay: HIV assay in human PBM cells (RT activity of supernatant); type: cell-based; details: 5 days, read-out: Anti-HIV-1 Activity (EC50)
Text: Human peripheral blood mononuclear (PBM) cells (obtained from Atlanta Red Cross) were isolated by Ficoll-Hypaque discontinuous gradient centrifugation from healthy seronegative donors. Cells were stimulated with phytohemagglutinin A (Difco, Sparks, Md.) for 2-3 days prior to use. HIV-1LAI obtained from the Centers for Disease Control and Prevention (Atlanta, Ga.) was used as the standard reference virus for the antiviral assays. The molecular infetious clones HIV-1xxBru and HIV-1M184Vpin were obtained from Dr. John Mellors (University of Pittsburgh). Infections were done in bulk for one hour, either with 100 TCID50/1×10^7 cells for a flask (T25) assay or with 200 TCID50/6×10^5 cells/well for a 24 well plate assay. Cells were added to a plate or flask containing a ten-fold serial dilution of the test compound. Assay medium was RPMI-1640 supplemented with heat inactivated 16% fetal bovine serum, 1.6 mM L-glutamine, 80 IU/ml penicillin, 80 μg/ml streptomycin, 0.0008% DEAE-Dextran, 0.045% sodium bicarbonate, and 26 IU/ml recombinant interleukin-2 (Chiron Corp, Emeryville, Calif.). AZT was used as a positive control for the assay. Untreated and uninfected PBM cells were grown in parallel at equivalent cell concentrations as controls. The cell cultures were maintained in a humidified 5% CO2-air at 37° C. for 5 days and supernatants were collected for reverse transcriptase (RT) activity.
Supernatants were centrifuged at 12,000 rpm for 2 hours to pellet the virus. The pellet was solubilized with vortexing in 100 μl virus solubilization buffer (VSB) containing 0.5% Triton X-100, 0.8 M NaCl, 0.5 mM phenylmethylsulfonyl fluoride, 20% glycerol, and 0.05 M Tris, pH 7.8. Ten μL of each sample were added to 75 μL RT reaction mixture (0.06 M Tris, pH 7.8, 0.012 M MgCl2, 0.006 M dithiothreitol, 0.006 mg/ml poly (rA)n, oligo (dT)12-18, 96 μg/ml dATP, and 1 μM of 0.08 mCi/ml ^3H-thymidine triphosphate (Moravek Biochemicals, Brea, Calif.) and incubated at 37° C. for 2 hours. The reaction was stopped by the addition of 100 μL 10% trichloroacetic acid containing 0.05% sodium pyrophosphate. The acid insoluble product was harvested onto filter paper using a Packard Harvester (Meriden, Conn.), and the RT activity was read on a Packard Direct Beta Counter (Meriden, Conn.). The RT results were expressed in counts per minute (CPM) per milliliter.

HBV = HBV Q-PCR assay in HepAD38 (AD38) cells; type: cell-based, hepatitis B virus; details: for EC90: read-out: HBV assay Q-PCR EC90
Method: The HepAD38 cell line replicates HBV under conditions that can be regulated with tetracycline (12, 15). In the presence of this drug, the cell supernatant is virtually free of viral DNA, but upon the removal of tetracycline from the culture medium, these cells secrete virus-like particle into the supernatant (12). HepAD38 cells were seeded at 5×10^4 cells/well in a 96-well plate in seeding medium (DMEM/F12+10% FBS, 50 μg/mL penicillin, 50 μg/mL streptomycin, 100 μg/mL kanamycin, 400 μg/mL G418, and 0.3 μg/mL tetracycline) and incubated for 2 days at 37° C. in a 5% CO2 humid atmosphere. The seeding media was removed, and cells were washed 3 times with PBS. Cells were then incubated with 200 μL assay medium (DMEM/F12+10% FBS+P/S/K) containing either no compound, test compound, or control drugs at 10 μM. After a 5-day incubation, the cell supernatant was collected and stored at −70° C. until HBV DNA was quantified. HBV DNA was extracted from supernatant using QiaAmp DNA blood Mini kit (Qiagen) and nucleic acids eluted in 200 μL. Viral DNA was detected in Q-PCR. The TaqMan probe and primers were designed using the Primer Express software (Applied Biosystems) and cover highly conserved sequences complementary to the DNA sequences present in HBsAg (24). A total of 5 μL DNA was amplified using reagents and conditions as described by the manufacturer (Applied Biosystems). […]

[1] = AD38 cells, 5-day incubation, HBV DNA in supernatant
[2] = Human immunodeficiency virus 1, PBMC, 120 h

SMILES	EC90 (HIV-1 LAI (wild type)) [µM]	EC50 (HIV-1LAI) [nM]	EC90 (HBV; [1]) [nM]	EC90 (HIV-1 LAI (wild type); [2]) [µM]	further results
Nc1ccn([C@@H]2S[C@H](CO)C=C2F)c(=O)n1 [Compound D-17, (−)-1-[(1S,4R)-2,3-dideoxy-2,3-didehydro-2-fluoro4-thio-β-D-ribofuranosyl]-cytosine]	24.6	1300	> 100000	–	–
Cc1cn([C@H]2C[C@H](N=[N+]=[N-])[C@@H](CO)O2)c(=O)[nH]c1=O [AZT, 3′-azido-3′-deoxythymidine, reference compound]	–	–	–	0.03	EC50 (HIV-1LAI; [2]): 4 nM
Nc1ccn([C@H]2S[C@@H](CO)C=C2F)c(=O)n1 [Compound L-17, (+)-1-[(1S,4R)-2,3-dideoxy-2,3-didehydro-2-fluoro-4-thio-β-L-ribofuranosyl]-cytosine]	4.1	–	> 100000	–	–
Nc1nc(=O)n([C@H]2S[C@@H](CO)C=C2F)cc1F [Compound L-18, (+)-1-[(1S,4R)-2,3-dideoxy-2,3-didehydro-2-fluoro-4-thio-β-L-ribofuranosyl]-5-fluoro-cytosine]	4.3	150	> 100000	–	–
Nc1ccn([C@@H]2C=C(F)[C@H](CO)O2)c(=O)n1 [Compound 10, 1-(2,3-Dideoxy-3-fluoro-β-L-glycero-pent-2-eno-furanosyl)cytosine]	–	–	–	50.6	EC90 (HBV; Hepatitis B virus, HePAD38, 120 h): ≥ 100000 nM
Nc1ccn([C@@H]2C=C(F)[C@H](CO)O2)c(=O)n1 [Compound 23, 1-(2,3-Didcoxy-3-fluoro-β-L-glycero-pent-2-eno-furanosyl)cytosine]	0.92	–	1000	–	–
Nc1ccn([C@@H]2CS[C@H](CO)O2)c(=O)n1 [Compound 3TC, (−)-β-2′,3′-dideoxy-3′-thiacytidine, reference compound]	–	–	3000	0.37	reduction of release of HBV DNA in the supernatant (HBV; 10 μM, 5 days, HepAD38 cells): ~1.5 log; EC90 (HBV; Hepatitis B virus, HePAD38, 120 h, AD38 cells, 5-day incubation, HBV DNA in supernatant): 2900 nM
Nc1nc(=O)n([C@@H]2S[C@H](CO)C=C2F)cc1F [Compound D-18, (−)-1-[(1S,4R)-2,3-dideoxy-2,3-didehydro-2-fluoro-4-thio-β-D-ribofuranosyl]-5-fluorocytosine]	> 100	11600	> 100000	–	–
